We go through twelve compounds from patent US20250302832A1, “PYRAZINE DERIVATIVES AND USES THEREOF” (FOGHORN THERAPEUTICS INC., priority 2022, published 2025).

Test [1] has as its target T1, HiBit-BRM fusion protein (Homo sapiens, UniProt P51531).
T1 construct: expressed in transfected cells
Nature of the test: HiBiT-BRM cell-based degradation assay (Nano-Glo HiBiT lytic detection, 24 h). To be noted: HeLa cell line expressing HiBiT-BRM; for DC50: read-out: BRM HiBit Degradation IC50. In outline: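 Stable HeLa HiBiT-BRM cells treated 24 h with compounds (10-point 3-fold dilutions, 30 μM final top dose, duplicate). HiBiT levels read by Nano-Glo lytic luminescence; % degradation normalised to DMSO (high control) and 2 μM reference BRM/BRG1 degrader (low control).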

In test [2] the target is T2, HiBit-BRG1 fusion protein (Homo sapiens, UniProt P51532).
T2 construct: expressed in transfected cells
T2 sequence (P51532 whole entry, the tested form may be a part): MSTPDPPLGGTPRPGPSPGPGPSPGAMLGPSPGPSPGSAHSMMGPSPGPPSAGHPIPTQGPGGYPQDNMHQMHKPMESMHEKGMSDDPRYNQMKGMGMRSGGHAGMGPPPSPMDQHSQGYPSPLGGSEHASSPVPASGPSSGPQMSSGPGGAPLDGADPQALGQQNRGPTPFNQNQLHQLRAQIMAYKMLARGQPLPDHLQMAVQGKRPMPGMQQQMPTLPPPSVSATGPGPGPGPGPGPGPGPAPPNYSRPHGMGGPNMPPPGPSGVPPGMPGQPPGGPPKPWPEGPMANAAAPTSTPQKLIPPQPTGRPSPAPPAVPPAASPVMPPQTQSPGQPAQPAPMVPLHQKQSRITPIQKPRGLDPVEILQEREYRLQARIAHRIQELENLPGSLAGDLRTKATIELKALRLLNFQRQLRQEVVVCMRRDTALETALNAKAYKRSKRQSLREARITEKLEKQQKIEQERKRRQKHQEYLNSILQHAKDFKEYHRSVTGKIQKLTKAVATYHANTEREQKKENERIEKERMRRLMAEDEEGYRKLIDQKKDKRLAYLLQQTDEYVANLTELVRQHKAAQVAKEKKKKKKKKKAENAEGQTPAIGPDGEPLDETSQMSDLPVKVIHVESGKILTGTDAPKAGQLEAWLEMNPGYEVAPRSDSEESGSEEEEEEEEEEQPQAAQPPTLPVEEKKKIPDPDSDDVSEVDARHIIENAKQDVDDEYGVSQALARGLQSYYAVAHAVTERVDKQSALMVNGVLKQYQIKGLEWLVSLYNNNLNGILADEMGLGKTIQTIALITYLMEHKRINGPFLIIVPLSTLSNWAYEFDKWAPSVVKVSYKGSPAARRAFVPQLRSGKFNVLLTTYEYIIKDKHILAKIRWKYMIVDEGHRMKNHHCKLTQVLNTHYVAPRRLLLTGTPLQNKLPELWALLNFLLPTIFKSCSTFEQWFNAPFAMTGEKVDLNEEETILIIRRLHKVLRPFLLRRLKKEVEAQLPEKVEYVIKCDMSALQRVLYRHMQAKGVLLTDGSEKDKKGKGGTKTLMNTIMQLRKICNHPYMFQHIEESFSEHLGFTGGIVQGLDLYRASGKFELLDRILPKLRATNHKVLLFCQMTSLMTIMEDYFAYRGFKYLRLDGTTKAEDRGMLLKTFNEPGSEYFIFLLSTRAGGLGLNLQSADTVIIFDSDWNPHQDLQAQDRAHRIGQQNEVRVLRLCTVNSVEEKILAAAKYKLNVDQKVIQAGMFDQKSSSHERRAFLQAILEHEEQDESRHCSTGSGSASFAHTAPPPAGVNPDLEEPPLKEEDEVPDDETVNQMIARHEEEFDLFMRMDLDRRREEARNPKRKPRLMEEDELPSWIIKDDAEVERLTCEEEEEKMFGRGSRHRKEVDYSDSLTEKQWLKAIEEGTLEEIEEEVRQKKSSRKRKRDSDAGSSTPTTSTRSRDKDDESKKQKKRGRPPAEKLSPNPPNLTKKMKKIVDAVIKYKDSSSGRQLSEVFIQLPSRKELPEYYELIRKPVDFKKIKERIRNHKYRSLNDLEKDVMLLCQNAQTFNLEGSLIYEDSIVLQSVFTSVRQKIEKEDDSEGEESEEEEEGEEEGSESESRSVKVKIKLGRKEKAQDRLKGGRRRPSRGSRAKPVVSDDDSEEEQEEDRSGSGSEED
Nature of the test: HiBiT-BRG1 cell-based degradation assay (Nano-Glo HiBiT lytic detection, 24 h). To be noted: HeLa cell line expressing HiBit-BRG1 and LgBit; for Dmax: read-out: BRG1 HiBit Degradation Maximum (%); for DC50: read-out: BRMG1 HiBit Degradation IC50. In outline: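 HeLa cells stably expressing HiBiT-BRG1 and LgBiT, 5000 per well, compound-treated 24 h, equilibrated 15 min at room temperature, then lysed with LgBiT-containing Nano-Glo HiBiT lytic reagent and luminescence read. % degradation normalised between DMSO (high control) and 2 μM reference BRM/BRG1 degrader (low control).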

T1 sequence (P51531 whole entry, the tested form may be a part): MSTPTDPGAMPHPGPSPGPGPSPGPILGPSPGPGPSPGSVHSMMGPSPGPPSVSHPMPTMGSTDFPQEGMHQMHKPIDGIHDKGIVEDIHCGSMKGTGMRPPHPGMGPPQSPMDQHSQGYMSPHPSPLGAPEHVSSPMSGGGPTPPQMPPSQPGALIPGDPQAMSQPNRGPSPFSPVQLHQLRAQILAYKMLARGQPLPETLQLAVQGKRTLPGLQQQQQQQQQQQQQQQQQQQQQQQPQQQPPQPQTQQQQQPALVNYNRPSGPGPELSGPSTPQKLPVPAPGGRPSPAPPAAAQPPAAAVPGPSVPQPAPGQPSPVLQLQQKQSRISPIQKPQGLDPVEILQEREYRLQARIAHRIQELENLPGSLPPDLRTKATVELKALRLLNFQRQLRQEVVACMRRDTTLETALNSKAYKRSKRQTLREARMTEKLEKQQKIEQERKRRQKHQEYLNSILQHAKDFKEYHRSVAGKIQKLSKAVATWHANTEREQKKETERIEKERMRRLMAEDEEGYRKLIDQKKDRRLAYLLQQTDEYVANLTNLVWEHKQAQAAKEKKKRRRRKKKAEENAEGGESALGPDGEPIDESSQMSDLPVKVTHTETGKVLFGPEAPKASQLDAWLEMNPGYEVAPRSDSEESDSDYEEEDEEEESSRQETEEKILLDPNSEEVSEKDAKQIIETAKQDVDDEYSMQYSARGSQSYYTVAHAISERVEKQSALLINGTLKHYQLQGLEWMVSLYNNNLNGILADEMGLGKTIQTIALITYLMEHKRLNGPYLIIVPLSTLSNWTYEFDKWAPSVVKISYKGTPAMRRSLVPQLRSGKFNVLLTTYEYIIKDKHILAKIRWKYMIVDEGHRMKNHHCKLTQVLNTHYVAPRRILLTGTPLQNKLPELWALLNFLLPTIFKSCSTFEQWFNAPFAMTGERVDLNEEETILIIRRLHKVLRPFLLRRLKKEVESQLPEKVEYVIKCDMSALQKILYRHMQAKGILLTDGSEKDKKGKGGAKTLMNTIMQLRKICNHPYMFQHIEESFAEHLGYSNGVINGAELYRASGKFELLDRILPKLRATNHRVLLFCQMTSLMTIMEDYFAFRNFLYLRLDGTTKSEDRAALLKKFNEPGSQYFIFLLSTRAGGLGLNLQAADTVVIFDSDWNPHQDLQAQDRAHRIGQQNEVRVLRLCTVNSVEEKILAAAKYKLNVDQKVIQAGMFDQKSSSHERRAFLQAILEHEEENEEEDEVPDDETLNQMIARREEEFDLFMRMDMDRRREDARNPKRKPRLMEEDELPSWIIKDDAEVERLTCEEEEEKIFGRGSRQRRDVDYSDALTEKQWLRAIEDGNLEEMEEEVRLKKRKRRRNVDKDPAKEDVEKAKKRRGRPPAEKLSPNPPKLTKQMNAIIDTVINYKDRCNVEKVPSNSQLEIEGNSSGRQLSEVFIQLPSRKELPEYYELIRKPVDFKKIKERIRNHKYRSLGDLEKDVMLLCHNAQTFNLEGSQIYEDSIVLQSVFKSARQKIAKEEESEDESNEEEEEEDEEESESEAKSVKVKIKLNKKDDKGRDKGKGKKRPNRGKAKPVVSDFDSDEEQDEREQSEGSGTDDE

With `Cc1ncsc1-c1ccc([C@H](C)NC(=O)[C@@H]2C[C@@H](O)CN2C(=O)[C@@H](c2cc(N3CC[C@H](c4cc5nnc(-c6ccccc6O)cc5n4C4CCC4)C3)no2)C(C)C)cc1` [Compound 79, (2S,4R)-1-((R)-2-(3-((S)-3-(5-cyclobutyl-3-(2-hydroxyphenyl)-5H-pyrrolo[3,2-c]pyridazin-6-yl)pyrrolidin-1-yl)isoxazol-5-yl)-3-methylbutanoyl)-4-hydroxy-N-((S)-1-(4-(4-methylthiazol-5-yl)phenyl)ethyl)pyrrolidine-2-carboxamide], in test [1], the “BRM HiBit Degradation Maximum (%)” value is “A (“A” indicates maximum degradation ≥75%)” and the DC50 was over 10 nM. Besides, in test [2], the Dmax is under 50%.
In the case of `Cc1ncsc1-c1ccc([C@H](C)NC(=O)[C@@H]2C[C@@H](O)CN2C(=O)[C@@H](c2cc(N3CC[C@H](c4cc5nnc(-c6ccccc6O)cc5n4C4(C)CC4)C3)no2)C(C)C)cc1` [Compound 80, (2S,4R)-4-hydroxy-1-((R)-2-(3-((S)-3-(3-(2-hydroxyphenyl)-5-(1-methylcyclopropyl)-5H-pyrrolo[3,2-c]pyridazin-6-yl)pyrrolidin-1-yl)isoxazol-5-yl)-3-methylbutanoyl)-N-((S)-1-(4-(4-methylthiazol-5-yl)phenyl)ethyl)pyrrolidine-2-carboxamide], in test [1], the “BRM HiBit Degradation Maximum (%)” value is given as “A (“A” indicates maximum degradation ≥75%)” and the DC50 was over 10 nM. Moreover, in test [2], the Dmax is over 75% and the DC50 was over 10 nM.
Regarding `Cc1ncsc1-c1ccc([C@H](C)NC(=O)[C@@H]2C[C@@H](O)CN2C(=O)[C@@H](c2cc(N3CC[C@@H](c4cc5nnc(-c6ccccc6O)cc5n4C4(C)CC4)C3)no2)C(C)C)cc1` [Compound 81, (2S,4R)-4-hydroxy-1-((R)-2-(3-((R)-3-(3-(2-hydroxyphenyl)-5-(1-methylcyclopropyl)-5H-pyrrolo[3,2-c]pyridazin-6-yl)pyrrolidin-1-yl)isoxazol-5-yl)-3-methylbutanoyl)-N-((S)-1-(4-(4-methylthiazol-5-yl)phenyl)ethyl)pyrrolidine-2-carboxamide], in test [1], the “BRM HiBit Degradation Maximum (%)” value is “A (“A” indicates maximum degradation ≥75%)” and the DC50 was under 10 nM. Also, in test [2], the Dmax was over 75% and the DC50 was under 10 nM.
As to `Cc1ncsc1-c1ccc([C@H](C)NC(=O)[C@@H]2C[C@@H](O)CN2C(=O)[C@@H](c2cc(-c3ccnc(N4CC[C@@H](c5cc6nnc(-c7ccccc7O)cc6n5C5CC5)C4)c3)no2)C(C)C)cc1` [Compound 82, (2S,4R)-1-[(2R)-2-(3-{2-[(3R)-3-[5-cyclopropyl-3-(2-hydroxyphenyl)pyrrolo [3,2-c]pyridazin-6-yl]pyrrolidin-1-yl]pyridin-4-yl}-1,2-oxazol-5-yl)-3-methylbutanoyl]-4-hydroxy-N-[(1S)-1-[4-(4-methyl-1,3-thiazol-5-yl)phenyl]ethyl]pyrrolidine-2-carboxamide], in test [1], the “BRM HiBit Degradation Maximum (%)” value was “A (“A” indicates maximum degradation ≥75%)” and the DC50 was under 10 nM. For the same compound, in test [2], the Dmax was over 50% and the DC50 was over 10 nM.
Regarding `Cc1ncsc1-c1ccc(CNC(=O)[C@@H]2C[C@@H](O)CN2C(=O)[C@@H](c2cc(N3CCC4(CC3)CC(c3cc5nnc(-c6ccccc6O)cc5n3C3CC3)C4)no2)C(C)C)cc1` [Compound 84, (2S,4R)-1-((R)-2-(3-(2-(5-cyclopropyl-3-(2-hydroxyphenyl)-5H-pyrrolo[3,2-c]pyridazin-6-yl)-7-azaspiro[3.5]nonan-7-yl)isoxazol-5-yl)-3-methylbutanoyl)-4-hydroxy-N-(4-(4-methylthiazol-5-yl)benzyl)pyrrolidine-2-carboxamide], in test [1], the “BRM HiBit Degradation Maximum (%)” value is on record as “A (“A” indicates maximum degradation ≥75%)” and the DC50 is under 10 nM. Further, the Dmax in test [2] was under 50%.
Regarding `Cc1ncsc1-c1ccc([C@H](C)NC(=O)[C@@H]2C[C@@H](O)CN2C(=O)[C@@H](c2cc(N3CCC4(CCC(c5cc6nnc(-c7ccccc7O)cc6n5C5CC5)CC4)CC3)no2)C(C)C)cc1` [Compound 85, (2S,4R)-1-((R)-2-(3-(9-(5-cyclopropyl-3-(2-hydroxyphenyl)-5H-pyrrolo[3,2-c]pyridazin-6-yl)-3-azaspiro[5.5]undecan-3-yl)isoxazol-5-yl)-3-methylbutanoyl)-4-hydroxy-N-((S)-1-(4-(4-methylthiazol-5-yl)phenyl)ethyl)pyrrolidine-2-carboxamide], in test [1], the “BRM HiBit Degradation Maximum (%)” value is reported as “A (“A” indicates maximum degradation ≥75%)” and the DC50 is under 10 nM. Moreover, in test [2], the Dmax was over 75% and the DC50 was over 10 nM.
Consider `Cc1ncsc1-c1ccc([C@H](C)NC(=O)[C@@H]2C[C@@H](O)CN2C(=O)[C@@H](c2cc(N3CCC4(CC3)CC(c3cc5nnc(-c6ccccc6O)cc5n3CC3CC3)C4)no2)C(C)C)cc1` [Compound 86, (2S,4R)-1-((R)-2-(3-(2-(5-(cyclopropylmethyl)-3-(2-hydroxyphenyl)-5H-pyrrolo[3,2-c]pyridazin-6-yl)-7-azaspiro[3.5]nonan-7-yl)isoxazol-5-yl)-3-methylbutanoyl)-4-hydroxy-N-((S)-1-(4-(4-methylthiazol-5-yl)phenyl)ethyl)pyrrolidine-2-carboxamide], for which, in test [1], the “BRM HiBit Degradation Maximum (%)” value is listed as “A (“A” indicates maximum degradation ≥75%)” and the DC50 was under 10 nM. Besides, the Dmax in test [2] was under 50%.
Take `Cc1ncsc1-c1ccc([C@H](C)NC(=O)[C@@H]2C[C@@H](O)CN2C(=O)[C@@H](c2cc(N3CC4(CCC(c5cc6nnc(-c7ccccc7O)cc6n5C5CC5)CC4)C3)no2)C(C)C)cc1` [Compound 87, (2S,4R)-1-((R)-2-(3-(7-(5-cyclopropyl-3-(2-hydroxyphenyl)-5H-pyrrolo[3,2-c]pyridazin-6-yl)-2-azaspiro[3.5]nonan-2-yl)isoxazol-5-yl)-3-methylbutanoyl)-4-hydroxy-N-((S)-1-(4-(4-methylthiazol-5-yl)phenyl)ethyl)pyrrolidine-2-carboxamide]: in test [1], the “BRM HiBit Degradation Maximum (%)” value is “A (“A” indicates maximum degradation ≥75%)” and the DC50 was under 10 nM. Further, in test [2], the Dmax is over 75% and the DC50 was under 10 nM.
On to `Cc1ncsc1-c1ccc([C@H](C)NC(=O)[C@@H]2C[C@@H](O)CN2C(=O)[C@@H](c2cc(N3CC[C@@H](c4cc5nnc(-c6ccccc6O)cc5n4C4CCC4)C3)no2)C(C)C)cc1` [Compound 88, (2S,4R)-1-((R)-2-(3-((R)-3-(5-cyclobutyl-3-(2-hydroxyphenyl)-5H-pyrrolo[3,2-c]pyridazin-6-yl)pyrrolidin-1-yl)isoxazol-5-yl)-3-methylbutanoyl)-4-hydroxy-N-((S)-1-(4-(4-methylthiazol-5-yl)phenyl)ethyl)pyrrolidine-2-carboxamide], for which, in test [1], the “BRM HiBit Degradation Maximum (%)” value was “A (“A” indicates maximum degradation ≥75%)” and the DC50 was under 10 nM. In test [2], the Dmax was over 75% and the DC50 is over 10 nM.
For `Cc1ncsc1-c1ccc(CNC(=O)[C@@H]2C[C@@H](O)CN2C(=O)[C@@H](c2cc(-c3cnc(N4CC[C@@H](c5cc6nnc(-c7ccccc7O)cc6n5C5CC5)C4)nc3)no2)C(C)C)cc1` [Compound 89, (2S,4R)-1-((R)-2-(3-(2-((R)-3-(5-cyclopropyl-3-(2-hydroxyphenyl)-5H-pyrrolo[3,2-c]pyridazin-6-yl)pyrrolidin-1-yl)pyrimidin-5-yl)isoxazol-5-yl)-3-methylbutanoyl)-4-hydroxy-N-(4-(4-methylthiazol-5-yl)benzyl)pyrrolidine-2-carboxamide], in that order: “A (“A” indicates maximum degradation ≥75%)”, over 10 nM, over 50% and over 10 nM.
As for `Cc1ncsc1-c1ccc(CNC(=O)[C@@H]2C[C@@H](O)CN2C(=O)[C@@H](c2cc(-c3cnc(N4CC[C@H](c5cc6nnc(-c7ccccc7O)cc6n5C5CC5)C4)nc3)no2)C(C)C)cc1` [Compound 90, (2S,4R)-1-((R)-2-(3-(2-((S)-3-(5-cyclopropyl-3-(2-hydroxyphenyl)-5H-pyrrolo[3,2-c]pyridazin-6-yl)pyrrolidin-1-yl)pyrimidin-5-yl)isoxazol-5-yl)-3-methylbutanoyl)-4-hydroxy-N-(4-(4-methylthiazol-5-yl)benzyl)pyrrolidine-2-carboxamide], in test [1], the “BRM HiBit Degradation Maximum (%)” value is “A (“A” indicates maximum degradation ≥75%)” and the DC50 was under 10 nM. Besides, the Dmax in test [2] is under 50%.
For `CC(C)[C@@H](C(=O)N1C[C@H](O)C[C@H]1C(=O)N[C@@H](C)c1ccc(F)cc1)c1cc(-c2cnc(N3CC[C@H](c4cc5nnc(-c6ccccc6O)cc5n4C4CC4)C3)nc2)no1` [Compound 92, (2S,4R)-1-((R)-2-(3-(2-((S)-3-(5-cyclopropyl-3-(2-hydroxyphenyl)-5H-pyrrolo[3,2-c]pyridazin-6-yl)pyrrolidin-1-yl)pyrimidin-5-yl)isoxazol-5-yl)-3-methylbutanoyl)-N-((S)-1-(4-fluorophenyl)ethyl)-4-hydroxypyrrolidine-2-carboxamide], in that order: “A (“A” indicates maximum degradation ≥75%)”, under 10 nM and under 50%.
